Laboratory results: paper PMC11289651, “Ruthenium(II) complexes of curcumin and β-diketone derivatives: effect of structural modifications on their cytotoxicity” (Royal Society Open Science, 2024)
Like-named read-outs stand apart in the source and are kept apart here.

Experiments:
Type in all cases: cell-based
[1] = tested on: MCF-7 (hormone-dependent breast cancer); assay: MTT cytotoxicity assay, MCF-7; details: for IC50 fold lower than that of cisplatin: MCF-7 cells; for IC50: read-out: IC50 MCF-7; for SI^2 = IC50 (MCF-10A)/IC50 (MCF-7): selectivity index
Experimental: (§1) HTB-26), MCF-7 (hormone-dependent breast cancer, ATCC: HTB−22), A549 (lung cancer, ATCC: CCL-185) and A2780cis (cisplatin-resistant ovarian cancer), and the non-tumour cell lines: MCF-10A (breast epithelial cells, ATCC: CRL-10317) and MRC-5 (lung fibroblast, ATCC: […] All the cells were maintained at 37°C in a humidified incubator with a 5% CO2 atmosphere. […] Then, the cells were treated with the compounds, solubilized in DMSO, at different concentrations and the plates were incubated for 48 h. To solubilize cisplatin, dimethylformamide (DMF) was used. The percentage of DMSO and DMF used in the assay was 0.5%. Afterwards, 50 μl of MTT (0.5 mg ml^−1 in phosphate-buffered saline) was added to each well of the plate and the plates were incubated for 4 h at 37°C. Then, the culture medium was removed, and the water-insoluble formazan crystals formed were solubilized by the addition of 100 μl isopropanol. The absorbance was recorded at 540 nm using a microplate reader. The half maximal inhibitory concentration (IC50) values were obtained using the GRAPHPAD PRISM software.

[2] = tested on: A2780cis (cisplatin-resistant ovarian cancer); assay: MTT cytotoxicity assay, A2780cis; details: for IC50: read-out: IC50 A2780cis; for SI^3 = IC50 (MRC-5)/IC50 (A2780cis): selectivity index, column head prints IS^3
Experimental: as §1

[3] = tested on: A549 (lung cancer); assay: MTT cytotoxicity assay, A549; details: for IC50 of cisplatin fold higher than IC50 of the complex: A549 cells; for IC50: read-out: IC50 A549; for SI^4 = IC50 (MRC-5)/IC50 (A549): selectivity index, column head prints IS^4
Experimental: as §1

[4] = tested on: MRC-5 (non-tumour lung fibroblast); assay: MTT cytotoxicity assay, MRC-5; details: read-out: IC50 MRC-5
Experimental: as §1

[5] = tested on: MDA-MB-231 (triple-negative breast cancer); assay: MTT cytotoxicity assay, MDA-MB-231; details: for IC50: read-out: IC50 MDA-MB-231; for SI^1 = IC50 (MCF-10A)/IC50 (MDA-MB-231): selectivity index
Experimental: as §1

[6] = tested on: MCF-10A (non-tumour breast epithelial cells); assay: MTT cytotoxicity assay, MCF-10A; details: read-out: IC50 MCF-10A
Experimental: as §1

[7] = tested on: MDA-MB-231, MCF-7, A549, A2780cis, MRC-5 and MCF-10A cell lines; assay: MTT cytotoxicity assay, all cell lines studied; details: tested concentrations (<100 µM)
Experimental: The MDA-MB-231, A549 and MRC5 cell lines were cultured in Dulbecco’s modified eagle medium (DMEM) containing 10% fetal bovine serum (FBS), penicillin (100 IU ml^−1), streptomycin (100 mg ml^−1) and L-glutamine (2 mM). The MCF-7 and A2780cis cells were grown in the Roswell Park Memorial Institute (RPMI) containing 10% FBS, penicillin (100 IU ml^−1), streptomycin (100 mg ml^−1) and L-glutamine (2 mM). The MCF-10A cells were grown in DMEM nutrient mixture F-12 (DMEM F-12) containing 5% fetal horse serum, epidermal growth factor (EGF) (20 ng ml^−1), hydrocortisone (0.5 µg ml^−1), insulin (0.01 mg ml^−1), 1% penicillin and 1% streptomycin. All the cells were maintained at 37°C in a humidified incubator with a 5% CO2 atmosphere.
The cytotoxic activities of the free ligands and complexes were analysed by MTT (3-[4,5-dimethylthiazol-2-yl]-2,5 diphenyl tetrazolium bromide) assay [32]. For that, cells were plated in 96-well plates (1.5 × 10^4 cells well^−1) and kept for 24 h in an incubator with 5% CO2 and 37°C for adherence. Then, the cells were treated with the compounds, solubilized in DMSO, at different concentrations and the plates were incubated for 48 h. […] The percentage of DMSO and DMF used in the assay was 0.5%. […] The absorbance was recorded at 540 nm using a microplate reader.

[8] = Homo sapiens, MCF7, MTT, 48 h incubation
[9] = Homo sapiens, A549, MTT, 48 h incubation
[10] = Homo sapiens, MRC5, MTT, 48 h incubation
[11] = Homo sapiens, MDA-MB-231, MTT, 48 h incubation
[12] = Homo sapiens, MCF-10A, MTT, 48 h incubation

CC(=O)C=C(C)[O-].F[P-](F)(F)(F)(F)F.[Ru+2].c1ccc(-c2ccccn2)nc1.c1ccc(P(c2ccccc2)c2ccccc2)cc1.c1ccc(P(c2ccccc2)c2ccccc2)cc1 [Ru1, [Ru(acac)(PPh3)2(bipy)]PF6] was tested, and the “IC50 fold lower than that of cisplatin” value [1] was 7.5 fold, the IC50 ([1]; MTT, 48 h incubation) was 1.86 µM and the “SI^2 = IC50 (MCF-10A)/IC50 (MCF-7)” value [1] was 0.91. The IC50 ([2]; MTT, 48 h incubation) was 0.59 µM, the “SI^3 = IC50 (MRC-5)/IC50 (A2780cis)” value [2] was 8.34 and the “IC50 of cisplatin fold higher than IC50 of the complex” value [3] was 8 fold. The IC50 ([3]; MTT, 48 h incubation) was 1.43 µM, the “SI^4 = IC50 (MRC-5)/IC50 (A549)” value [3] was 3.44 and the IC50 ([4]; MTT, 48 h incubation) was 4.92 µM. The IC50 ([5]; MTT, 48 h incubation) was 2.09 ± 0.46 µM, the “SI^1 = IC50 (MCF-10A)/IC50 (MDA-MB-231)” value [5] was 0.81 and the IC50 ([6]; MTT, 48 h incubation) was 1.7 µM.

For F[P-](F)(F)(F)(F)F.O=C(C=C([O-])c1ccccc1)c1ccccc1.[Ru+2].c1ccc(-c2ccccn2)nc1.c1ccc(P(c2ccccc2)c2ccccc2)cc1.c1ccc(P(c2ccccc2)c2ccccc2)cc1 [Ru2, [Ru(dbm)(PPh3)2(bipy)]PF6], the “IC50 fold lower than that of cisplatin” value [1] was 8.0 fold, the IC50 ([1]; MTT, 48 h incubation) was 1.74 µM and the “SI^2 = IC50 (MCF-10A)/IC50 (MCF-7)” value [1] was 0.98. The IC50 ([2]; MTT, 48 h incubation) was 0.39 µM, the “SI^3 = IC50 (MRC-5)/IC50 (A2780cis)” value [2] was 12.43 and the “IC50 of cisplatin fold higher than IC50 of the complex” value [3] was 11 fold. The IC50 ([3]; MTT, 48 h incubation) was 1.06 µM, the “SI^4 = IC50 (MRC-5)/IC50 (A549)” value [3] was 4.57 and the IC50 ([4]; MTT, 48 h incubation) was 4.85 µM. The IC50 ([5]; MTT, 48 h incubation) was 3.37 µM, the “SI^1 = IC50 (MCF-10A)/IC50 (MDA-MB-231)” value [5] was 0.50 and the IC50 ([6]; MTT, 48 h incubation) was 1.71 µM.

For COc1cc(C=CC(=O)C=C([O-])C=Cc2ccc(O)c(OC)c2)ccc1O.F[P-](F)(F)(F)(F)F.[Ru+2].c1ccc(-c2ccccn2)nc1.c1ccc(P(c2ccccc2)c2ccccc2)cc1.c1ccc(P(c2ccccc2)c2ccccc2)cc1 [Ru3, [Ru(cur)(PPh3)2(bipy)]PF6], the “SI^2 = IC50 (MCF-10A)/IC50 (MCF-7)” value [1] was 0.45, the IC50 ([2]; MTT, 48 h incubation) was 0.82 µM and the IC50 ([3]; MTT, 48 h incubation) was over 30 µM. For the same molecule, the IC50 ([4]; MTT, 48 h incubation) was over 30 µM, the IC50 ([5]; MTT, 48 h incubation) was 6.8 µM and the “SI^1 = IC50 (MCF-10A)/IC50 (MDA-MB-231)” value [5] was 0.94. The IC50 ([6]; MTT, 48 h incubation) was 6.41 µM.

For CC(=O)CC(C)=O [acac, acetylacetonate], the IC50 [1, 8] was over 100 µM, the IC50 ([2]; A2780cis, MTT, 48 h incubation) was over 100 µM and the “cytotoxic activity (in words)” value [7] was “did not exhibit activity”. It also gave an IC50 [3, 9] of over 100 µM, an IC50 [4, 10] of over 100 µM and an IC50 [5, 11] of over 100 µM. It also gave an IC50 [6, 12] of over 100 µM.

For N.N.[Cl][Pt][Cl] [cisplatin, cis-diamminedichloridoplatinum(II)], the IC50 ([1]; MTT, 48 h incubation) was 14 µM, the IC50 ([5]; MTT, 48 h incubation) was 10.2 µM and the IC50 ([6]; MTT, 48 h incubation) was 29.4 µM.

For COc1cc(/C=C/C(=O)CC(=O)/C=C/c2ccc(O)c(OC)c2)ccc1O [cur, curcumin], the IC50 [1, 8] was 20 µM, the “SI^2 = IC50 (MCF-10A)/IC50 (MCF-7)” value [1] was 0.84 and the IC50 ([2]; A2780cis, MTT, 48 h incubation) was 4.02 µM. For the same molecule, the “SI^3 = IC50 (MRC-5)/IC50 (A2780cis)” value [2] was 2.24, the IC50 [3, 9] was 33.3 µM and the “SI^4 = IC50 (MRC-5)/IC50 (A549)” value [3] was 0.27. For the same molecule, the IC50 [4, 10] was 8.99 µM, the IC50 [5, 11] was 29.7 µM and the “SI^1 = IC50 (MCF-10A)/IC50 (MDA-MB-231)” value [5] was 0.57. It also gave an IC50 [6, 12] of 16.9 µM.

In the case of O=C(CC(=O)c1ccccc1)c1ccccc1 [dbm, dibenzoylmethane], the IC50 ([1]; Homo sapiens, MCF7, 48 h) is reported as 11.7 µM, the “SI^2 = IC50 (MCF-10A)/IC50 (MCF-7)” value [1] is reported as 4.34 and the IC50 ([2]; A2780cis, 48 h) is reported as 62.6 µM. The “SI^3 = IC50 (MRC-5)/IC50 (A2780cis)” value [2] was 0.15, the IC50 ([3]; Homo sapiens, A549, 48 h) was 23.1 µM and the “SI^4 = IC50 (MRC-5)/IC50 (A549)” value [3] was 0.41. The IC50 ([4]; Homo sapiens, MRC5, 48 h) was 9.54 µM, the IC50 ([5]; Homo sapiens, MDA-MB-231, 48 h) was 59.6 µM and the “SI^1 = IC50 (MCF-10A)/IC50 (MDA-MB-231)” value [5] was 0.85. It also gave an IC50 ([6]; Homo sapiens, MCF-10A, 48 h) of 50.7 µM.
